Data published in patent publication US20240009148A1, “Cystamine Formulations and Uses Thereof” (Birch Therapeutics, Inc., priority 2020, published 2024).
Where a name gives a salt, the structure may show the parent alone. Read-outs that look alike come from different tables or passages of the source.

Legend:
[1] = parameters: species or system male Sprague Dawley rats; conditions: rat, in vivo
Experimental: Cystamine dihydrochloride and cysteamine hydrochloride were administered to rats 1) orally on an empty stomach; 2) orally on full stomach; and 3) intra-cecum to evaluate the pharmacokinetics of cystamine and to compare it to cysteamine pharmacokinetics. Oral administration (PO) simulated immediate-release (IR) formulations. Intra-cecum (IC) administration simulated large intestine release (LIR) formulations, which provides a time to Cmax of more than 4 hours after administration.
Animal studies were performed by Absorption Systems. Test articles: Cysteamine hydrochloride (CH), 98%; Cystamine dihydrochloride (HCCH), 95-96% (both obtained from Sigma Aldrich). CH has one cysteamine base, while HCCH, upon disulfide bond reduction, yields two cysteamine molecules. CH and HCCH were administered at a dose selected to deliver 30 mg/kg of cysteamine base (44.2 mg/kg and 43.8 mg/kg respectively), so that each rat received same number of cysteamine molecules. Test articles (dry powder) were dissolved in 3 mL for PO and in 0.5 mL for IC of room temperature water no more than 15 minutes before dosing.
Five (5) male Sprague Dawley rats ˜300-350 gram (Envigo) were used per group, with 6 groups total.
All animals were healthy at the start of the trial and assigned randomly to the study groups by weight. Fed state animals had food and water supplied ad libitum. Fasted state animals had food removed at least 12 hours prior to dosing and food was returned 4 hours post dosing; water was supplied ad libitum. Oral gavage needle and syringe were used for oral administration. For IC dose administration, the animals were anesthetized with isoflurane regulated at ˜1-3% in oxygen. The abdominal cavity was surgically opened and the proximal large intestine was exposed. A test article was administered directly into the proximal large intestine with a 1 cc disposable syringe equipped with a 25 g hypodermic needle. The surgical site was then closed with staples or suture.
Blood was sampled from jugular vein at the following time points: pre-dose, 15, 30, 60, 120, 180, and 240 minutes post dose. Blood samples were collected into tubes containing TBD anticoagulant, then centrifuged at a temperature of 4° C., at 3,000×g, for 5 minutes. Once prepared, plasma samples were snap frozen. Plasma samples were stored at −80° C. until analysis.
Sample analysis was performed by Integrated Analytical Solutions. To measure plasma cysteamine, to 10 uL of a plasma sample or standard was added 10 uL of internal standard with reduction solution: 5 ug/mL d4-cysteamine (CDN Isotopes), 10 mM TCEP in water, prepared fresh, and mixed thoroughly. The mixture was incubated at 37° C. for 60 minutes, then 40 uL of 5% trichloroacetic acid was added and the solution was mixed thoroughly. Samples were then centrifuged at 6100 g for 30 minutes. Next, 20 uL of each supernatant were transferred to an autosampler plate and sealed with a cap mat. The concentration of cysteamine was measured by use of LC/MS/MS tandem mass spectroscopy. Column Atlantis T3 2.1×30mm, 3um was used at a room temperature; mobile phase A: 0.1% heptafluorobutyric acid in water; mobile phase B: 0.2% formic acid in acetonitrile; injection volume: 3 uL. (API 4000 LC/MS/MS; Applied Biosystems). The following MS parameters were used—HPLC system: Shimadzu VP Series 10 System; MS/MS: Applied Biosystems/MDS SCIEX API 4000; software: Analyst v1.6.3; isolation method: Electrospray, Positive Ion; source temperature: TurbolonSpray (ESI) at 400°. Cysteamine concentrations were calculated with a calibration curve that was prepared by spiking plasma with buffered cysteamine solutions, and quality control samples were analyzed with each batch.

[2] = test system: cystinosis fibroblast cell culture; conditions: compared with cysteamine (Thoene 1976); cited from earlier work

With `NCCS` [CH, Cysteamine hydrochloride, reference compound] the “Cmax of plasma cysteamine, IC compared to PO fasted” value [1] was “higher”, the “Tmax (time to Cmax) of plasma cysteamine” value [1] was 15 min and the “Tmax (time to Cmax) of plasma cysteamine” value ([1]; po) was 15 min.
For `NCCSSCCN` [Cystamine], the “Decrease of lysosomal cystine” value [2] is given as “comparably to cysteamine”.
In the case of `Cl.Cl.NCCSSCCN` [HCCH, Cystamine dihydrochloride], the “AUC for dosing into the large intestine lower than AUC for oral dosing” value ([1]; male, Sprague Dawley, po) is reported as 25%, the “Cmax for IC dosing lower than Cmax after oral administration” value ([1]; male, Sprague Dawley, po) is reported as “more than 50%” and the “Absorption pattern after dosing to the large intestine” value [1] is reported as “not rapid, but rather sustained”. For the same molecule, the “Cmax of plasma cysteamine compared to CH” value ([1]; po) was “higher Cmax”.
